The values below come from ChEMBL document CHEMBL3407497, “Discovery of small molecule inhibitors to Krüppel-like factor 10 (KLF10): implications for modulation of T regulatory cell differentiation” (J Med Chem, 2015).

The pEC50 is the EC50 on a negative log10 scale, so that one unit is a factor of ten. What is called inhibition is the relative decrease from the control value, in per cent. Broadly, the pIC50 is the negative decadic logarithm of the IC50, by convention in mol/L.

Assay [1] can be described thus: Inhibition of zinc finger protein C7 (unknown origin) assessed as reduction in transcriptional activity by luciferase reporter gene assay relative to untreated control. Also noted: species or system Homo sapiens. For orientation: In a reporter assay the amount or activity of a reporter protein is the signal.
The subject of the next assay is HEK293. Kind of assay: Inhibition of GLI (unknown origin) expressed in HEK293 cells assessed as reduction in GLI-mediated transcription at 30 uM. Particulars: Homo sapiens. The assay is classed as cell-based.
Assay [2] addresses T1, Krueppel-like factor 10 (Homo sapiens) (UniProt Q13118).
T1 sequence (whole entry): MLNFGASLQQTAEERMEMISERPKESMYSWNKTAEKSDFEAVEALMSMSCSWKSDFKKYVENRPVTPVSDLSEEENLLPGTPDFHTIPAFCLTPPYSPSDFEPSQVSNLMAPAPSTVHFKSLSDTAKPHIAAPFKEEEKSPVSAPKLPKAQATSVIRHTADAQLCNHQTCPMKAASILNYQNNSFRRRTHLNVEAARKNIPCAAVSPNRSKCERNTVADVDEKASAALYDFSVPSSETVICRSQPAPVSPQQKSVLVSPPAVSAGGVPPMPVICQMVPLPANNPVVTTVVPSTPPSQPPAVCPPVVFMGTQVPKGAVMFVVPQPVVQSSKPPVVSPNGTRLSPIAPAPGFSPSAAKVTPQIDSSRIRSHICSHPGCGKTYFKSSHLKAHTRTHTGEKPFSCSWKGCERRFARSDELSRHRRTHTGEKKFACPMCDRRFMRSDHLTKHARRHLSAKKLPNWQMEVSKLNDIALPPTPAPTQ
Kind of assay: Inhibition of KLF10 (unknown origin) binding to DNA at 8 uM incubated for 4 hrs followed by biotin-labeled probes addition and incubated for another 1 hr by electromobility gel shift assay.

Assay [3] deals with T-cell. Kind of assay: Inhibition of Foxp3 gene expression in mouse T regulatory cells at 50 uM measured during TGFbeta1-induced conversion of CD4(+) and CD25(-) cells to CD4(+) and CD25(+) cells incubated for 3 days by real-time quantitative PCR method. The assay is classed as functional. The following applies: 72 h.
In assay [4] the target is Krueppel-like factor 1 (Homo sapiens) (UniProt Q13351). In words: Inhibition of KLF1 (unknown origin) binding to DNA at 8 uM incubated for 4 hrs followed by biotin-labeled probes addition and incubated for another 1 hr by electromobility gel shift assay. (In general: A gel shift assay detects complexes by their altered migration in electrophoresis.)
Assay [5] addresses T1, Krueppel-like factor 10 (Homo sapiens). In words: Inhibition of KLF10 (unknown origin) binding to DNA at 40 uM incubated for 4 hrs followed by biotin-labeled probes addition and incubated for another 1 hr by electromobility gel shift assay.
For assay [6], the target named is Krueppel-like factor 1 (Homo sapiens) (UniProt Q13351). In words: Inhibition of KLF1 (unknown origin) binding to DNA at 40 uM incubated for 4 hrs followed by biotin-labeled probes addition and incubated for another 1 hr by electromobility gel shift assay.
For assay [7], the system named is T-cell. In words: Inhibition of mouse T regulatory cell differentiation assessed as inhibition of TGFbeta1-induced conversion of CD4(+) and CD25(-) cells to CD4(+) and CD25(+) cells incubated for 3 days by flow cytometry. It is filed as functional.
The target of a further assay is T2, Krueppel-like factor 10 (Homo sapiens, UniProt Q13118).
T2 sequence (Q13118 whole entry): T1 sequence (whole entry)
Kind of assay: Inhibition of human KLF10 expressed in human HeLa cells assessed as reduction in transcriptional activity after 24 hrs by CACCC-responsive promoter driven TK-luciferase reporter gene assay. It is filed as cell-based.

pEC50, pIC50: −log10 of the molar value. Calls of active or inactive are those of the source. No cut-off for these calls is given here.

Krueppel-like factor 1 (Homo sapiens), sequence (Q13351 whole entry): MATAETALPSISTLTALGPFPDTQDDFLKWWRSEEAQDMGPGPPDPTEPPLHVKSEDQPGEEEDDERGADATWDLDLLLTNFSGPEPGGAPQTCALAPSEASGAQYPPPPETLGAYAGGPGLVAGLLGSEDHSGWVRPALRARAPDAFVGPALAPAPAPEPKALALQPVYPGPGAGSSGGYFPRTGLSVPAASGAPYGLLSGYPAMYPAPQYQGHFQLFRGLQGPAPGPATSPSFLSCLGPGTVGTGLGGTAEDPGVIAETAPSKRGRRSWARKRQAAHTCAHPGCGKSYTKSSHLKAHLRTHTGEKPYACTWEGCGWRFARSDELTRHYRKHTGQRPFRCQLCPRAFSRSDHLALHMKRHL

Turning to `c1ccc2[nH]c(-c3ccnc4ccccc34)nc2c1`, the pEC50 in assay [1] is 4.46.
With `c1cc(-c2sc(-c3ccncc3)c(-c3ccncc3)c2-c2ccncc2)ccn1`, the inhibition entry in the assay on HEK293 is “Active”.
As to `Cc1ccc(OCC(=O)c2cc(C)c(O)cc2O)cc1`, the inhibition in assay [2] was 11%; in assay [5], 25%. The compound further came in with an inhibition at 50 µM in the assay with T-cell [3] of 84.7%. Moreover, the inhibition result in assay [4] and in assay [6] was “inactive” throughout.
Turning to `CN(C)c1ccccc1CN1CCCN(Cc2ccccc2N(C)C)C1c1ccncc1`, the inhibition result in the assay with HEK293 was “Active”.
As to `Cc1sc2nc(SCC(=O)c3ccc(O)c(O)c3)[nH]c(=O)c2c1C`, the inhibition in assay [2] was 25%. The compound further gave an inhibition at 50 µM in the assay with T-cell [3] of 90.8%. Besides, in the assay on T-cell [7], the “inhibition (INH)” value was determined as 29.2%.
With `COc1ccc(C(=O)COC(=O)c2cc(C)ccc2O)cc1`, the inhibition in [2] turned out to be 12%; in [5], 45%. Moreover, in the assay with T-cell [3], the inhibition at 50 µM was 82.5%. For the same compound, the inhibition entry in assay [4] and in assay [6] was “inactive” each time. Besides, the “inhibition (INH)” value in the assay on T-cell [7] came to 59.1%. Further, the pIC50 at Krueppel-like factor 10 is 4.40.
